Experimental data from PubChem BioAssay (NCI).
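48-hour exposure; five concentrations; linearly interpolated endpoints. Abbreviation: GI50, concentration required for 50% inhibition of growth. TGI: concentration producing complete growth inhibition.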

Key:
Experiment in all cases: growth of human tumour cells (NCI), 48 h
KM12 colon = system: KM12 colon
EKVX NSCLC = system: EKVX NSCLC
SNB-19 CNS = system: SNB-19 CNS
UO-31 renal = system: UO-31 renal
NCI/ADR-RES ovarian = system: NCI/ADR-RES ovarian
IGROV1 ovarian = system: IGROV1 ovarian
HOP-62 NSCLC = system: HOP-62 NSCLC
HT29 colon = system: HT29 colon
SK-MEL-2 melanoma = system: SK-MEL-2 melanoma
HCC-2998 colon = system: HCC-2998 colon
U251 CNS = system: U251 CNS
PC-3 prostate = system: PC-3 prostate
SW-620 colon = system: SW-620 colon
M14 melanoma = system: M14 melanoma
MDA-MB-435 = system: MDA-MB-435
SK-MEL-5 melanoma = system: SK-MEL-5 melanoma
HS 578T breast = system: HS 578T breast
MALME-3M melanoma = system: MALME-3M melanoma
OVCAR-8 ovarian = system: OVCAR-8 ovarian
NCI-H460 lung = system: NCI-H460 lung
SF-539 CNS = system: SF-539 CNS
OVCAR-5 ovarian = system: OVCAR-5 ovarian
SF-268 CNS = system: SF-268 CNS
SK-OV-3 ovarian = system: SK-OV-3 ovarian
NCI-H23 lung = system: NCI-H23 lung
MCF7 breast = system: MCF7 breast
SK-MEL-28 melanoma = system: SK-MEL-28 melanoma
CAKI-1 renal = system: CAKI-1 renal
HCT-116 colon = system: HCT-116 colon
NCI-H522 lung = system: NCI-H522 lung
OVCAR-4 ovarian = system: OVCAR-4 ovarian
LOX IMVI melanoma = system: LOX IMVI melanoma
SR leukemia = system: SR leukemia
786-0 renal = system: 786-0 renal
UACC-257 melanoma = system: UACC-257 melanoma
HL-60(TB) leukemia = system: HL-60(TB) leukemia
CCRF-CEM leukemia = system: CCRF-CEM leukemia
K-562 leukemia = system: K-562 leukemia
COLO 205 colon = system: COLO 205 colon
RPMI-8226 leukemia = system: RPMI-8226 leukemia
HCT-15 colon = system: HCT-15 colon
A549 NSCLC = system: A549 NSCLC
MOLT-4 leukemia = system: MOLT-4 leukemia
OVCAR-3 ovarian = system: OVCAR-3 ovarian
ACHN renal = system: ACHN renal
BT-549 breast = system: BT-549 breast
A498 renal = system: A498 renal
UACC-62 melanoma = system: UACC-62 melanoma
DU-145 prostate = system: DU-145 prostate
SF-295 CNS = system: SF-295 CNS
TK-10 renal = system: TK-10 renal
MDA-MB-231 breast = system: MDA-MB-231 breast
SNB-75 CNS = system: SNB-75 CNS
SN12C renal = system: SN12C renal
NCI-H226 lung = system: NCI-H226 lung
RXF 393 renal = system: RXF 393 renal
HOP-92 NSCLC = system: HOP-92 NSCLC

## CCN(CC)c1ccc2cc(C(=O)Nc3ccccc3OC)c(=N)oc2c1
KM12 colon
  TGI: > 100 µM
EKVX NSCLC
  TGI: > 100 µM
SNB-19 CNS
  TGI: > 100 µM
UO-31 renal
  TGI: 1.58 µM
NCI/ADR-RES ovarian
  TGI: 90.8 µM
IGROV1 ovarian
  TGI: 35.3 µM
HOP-62 NSCLC
  TGI: > 100 µM
HT29 colon
  TGI: > 100 µM
SK-MEL-2 melanoma
  TGI: > 100 µM
HCC-2998 colon
  TGI: > 100 µM
U251 CNS
  TGI: > 100 µM
PC-3 prostate
  TGI: 59.6 µM
SW-620 colon
  TGI: > 100 µM
M14 melanoma
  TGI: > 100 µM
MDA-MB-435
  TGI: > 100 µM
SK-MEL-5 melanoma
  TGI: > 100 µM
HS 578T breast
  TGI: 98.4 µM
MALME-3M melanoma
  TGI: > 100 µM
OVCAR-8 ovarian
  TGI: 23 µM
NCI-H460 lung
  TGI: > 100 µM
SF-539 CNS
  TGI: > 100 µM
OVCAR-5 ovarian
  TGI: > 100 µM
SF-268 CNS
  TGI: > 100 µM
SK-OV-3 ovarian
  TGI: > 100 µM
NCI-H23 lung
  TGI: 89.8 µM
MCF7 breast
  TGI: > 100 µM
SK-MEL-28 melanoma
  TGI: > 100 µM
CAKI-1 renal
  TGI: 72.1 µM
HCT-116 colon
  TGI: > 100 µM
NCI-H522 lung
  TGI: 65.6 µM
OVCAR-4 ovarian
  TGI: > 100 µM
LOX IMVI melanoma
  TGI: 58.2 µM
SR leukemia
  TGI: > 100 µM
786-0 renal
  TGI: > 100 µM
UACC-257 melanoma
  TGI: > 100 µM
HL-60(TB) leukemia
  TGI: 31.6 µM
CCRF-CEM leukemia
  TGI: 20.8 µM
K-562 leukemia
  TGI: > 100 µM
COLO 205 colon
  TGI: > 100 µM
RPMI-8226 leukemia
  TGI: 88.7 µM
HCT-15 colon
  TGI: 88.3 µM
A549 NSCLC
  TGI: > 100 µM
MOLT-4 leukemia
  TGI: 17.2 µM
OVCAR-3 ovarian
  TGI: > 100 µM
ACHN renal
  TGI: > 100 µM
BT-549 breast
  TGI: 74.5 µM
A498 renal
  TGI: > 100 µM
UACC-62 melanoma
  TGI: > 100 µM
DU-145 prostate
  TGI: > 100 µM
SF-295 CNS
  TGI: > 100 µM

## CC1(C)N([O-])[N+](=O)C1(C)Br (centres undefined)
KM12 colon
  TGI: > 100 µM
EKVX NSCLC
  TGI: > 100 µM
SNB-19 CNS
  TGI: > 100 µM
UO-31 renal
  TGI: > 100 µM
NCI/ADR-RES ovarian
  TGI: > 100 µM
IGROV1 ovarian
  TGI: > 100 µM
HOP-62 NSCLC
  TGI: > 100 µM
TK-10 renal
  TGI: > 100 µM
HT29 colon
  TGI: > 100 µM
SK-MEL-2 melanoma
  TGI: > 100 µM
HCC-2998 colon
  TGI: > 100 µM
U251 CNS
  TGI: > 100 µM
PC-3 prostate
  TGI: > 100 µM
SW-620 colon
  TGI: > 100 µM
M14 melanoma
  TGI: > 100 µM
MDA-MB-435
  TGI: > 100 µM
SK-MEL-5 melanoma
  TGI: > 100 µM
HS 578T breast
  TGI: > 100 µM
OVCAR-8 ovarian
  TGI: > 100 µM
NCI-H460 lung
  TGI: > 100 µM
SF-539 CNS
  TGI: > 100 µM
MDA-MB-231 breast
  TGI: > 100 µM
OVCAR-5 ovarian
  TGI: > 100 µM
SF-268 CNS
  TGI: > 100 µM
SK-OV-3 ovarian
  TGI: > 100 µM
NCI-H23 lung
  TGI: > 100 µM
MCF7 breast
  TGI: > 100 µM
SNB-75 CNS
  TGI: > 100 µM
SK-MEL-28 melanoma
  TGI: > 100 µM
CAKI-1 renal
  TGI: > 100 µM
HCT-116 colon
  TGI: > 100 µM
NCI-H522 lung
  TGI: > 100 µM
OVCAR-4 ovarian
  TGI: > 100 µM
SN12C renal
  TGI: > 100 µM
LOX IMVI melanoma
  TGI: > 100 µM
SR leukemia
  TGI: > 100 µM
786-0 renal
  TGI: > 100 µM
UACC-257 melanoma
  TGI: > 100 µM
CCRF-CEM leukemia
  TGI: > 100 µM
K-562 leukemia
  TGI: > 100 µM
COLO 205 colon
  TGI: > 100 µM
NCI-H226 lung
  TGI: > 100 µM
HCT-15 colon
  TGI: > 100 µM
A549 NSCLC
  TGI: > 100 µM
MOLT-4 leukemia
  TGI: > 100 µM
OVCAR-3 ovarian
  TGI: > 100 µM
ACHN renal
  TGI: > 100 µM
BT-549 breast
  TGI: > 100 µM
RXF 393 renal
  TGI: > 100 µM
UACC-62 melanoma
  TGI: > 100 µM
SF-295 CNS
  TGI: > 100 µM

## O[C@H]1C=C2[C@H](C[C@@H]1O)CN1C[C@H]2c2cc3c(cc21)OCO3
KM12 colon
  GI50: 23.4 µM
  TGI: > 100 µM
EKVX NSCLC
  GI50: 39.6 µM
  TGI: > 100 µM
SNB-19 CNS
  GI50: 24.9 µM
  TGI: > 100 µM
UO-31 renal
  GI50: 61.2 µM
  TGI: > 100 µM
NCI/ADR-RES ovarian
  GI50: 70.5 µM
  TGI: > 100 µM
IGROV1 ovarian
  GI50: 62 µM
  TGI: > 100 µM
HOP-62 NSCLC
  GI50: 30.5 µM
  TGI: > 100 µM
TK-10 renal
  GI50: 20.3 µM
  TGI: 76.6 µM
SK-MEL-2 melanoma
  GI50: 99.5 µM
  TGI: > 100 µM
HCC-2998 colon
  GI50: 20.4 µM
  TGI: 56 µM
U251 CNS
  GI50: 27.6 µM
  TGI: 94.1 µM
PC-3 prostate
  GI50: 49.1 µM
  TGI: > 100 µM
SW-620 colon
  GI50: 49.1 µM
  TGI: > 100 µM
M14 melanoma
  GI50: 24.9 µM
  TGI: > 100 µM
MDA-MB-435
  GI50: 20.1 µM
  TGI: 90.4 µM
SK-MEL-5 melanoma
  GI50: 29.4 µM
  TGI: > 100 µM
HS 578T breast
  GI50: 79.9 µM
  TGI: > 100 µM
OVCAR-8 ovarian
  GI50: 30.2 µM
  TGI: > 100 µM
NCI-H460 lung
  GI50: 21.7 µM
  TGI: > 100 µM
SF-539 CNS
  GI50: 22.4 µM
  TGI: 80.2 µM
MDA-MB-231 breast
  GI50: 33 µM
  TGI: > 100 µM
OVCAR-5 ovarian
  GI50: 30.2 µM
  TGI: > 100 µM
SF-268 CNS
  GI50: 25.4 µM
  TGI: 86.5 µM
SK-OV-3 ovarian
  GI50: 6.15 µM
  TGI: 51.1 µM
NCI-H23 lung
  GI50: 29.3 µM
  TGI: 96.6 µM
MCF7 breast
  GI50: 28.8 µM
  TGI: > 100 µM
SK-MEL-28 melanoma
  GI50: 19 µM
  TGI: 87.7 µM
CAKI-1 renal
  GI50: 23.5 µM
  TGI: 61.1 µM
HCT-116 colon
  GI50: 21.6 µM
  TGI: > 100 µM
NCI-H522 lung
  GI50: 94.5 µM
  TGI: > 100 µM
OVCAR-4 ovarian
  GI50: 32.7 µM
  TGI: 73 µM
SN12C renal
  GI50: 18 µM
  TGI: 58.9 µM
LOX IMVI melanoma
  GI50: 18.7 µM
  TGI: 55.5 µM
SR leukemia
  GI50: 41 µM
  TGI: > 100 µM
786-0 renal
  GI50: 25.5 µM
  TGI: > 100 µM
UACC-257 melanoma
  GI50: 41.6 µM
  TGI: > 100 µM
HL-60(TB) leukemia
  GI50: 23.3 µM
  TGI: 87.5 µM
CCRF-CEM leukemia
  GI50: > 100 µM
  TGI: > 100 µM
K-562 leukemia
  GI50: 49.9 µM
  TGI: > 100 µM
COLO 205 colon
  GI50: 21.4 µM
  TGI: > 100 µM
NCI-H226 lung
  GI50: 22.1 µM
  TGI: 70.3 µM
RPMI-8226 leukemia
  GI50: 35.8 µM
  TGI: > 100 µM
HCT-15 colon
  GI50: 30.1 µM
  TGI: > 100 µM
A549 NSCLC
  GI50: 28.2 µM
  TGI: 88.8 µM
MOLT-4 leukemia
  GI50: > 100 µM
  TGI: > 100 µM
OVCAR-3 ovarian
  GI50: 42.1 µM
  TGI: 84.6 µM
HOP-92 NSCLC
  GI50: 83.1 µM
  TGI: > 100 µM
ACHN renal
  GI50: 8.92 µM
  TGI: 36.3 µM
BT-549 breast
  GI50: 37.8 µM
  TGI: > 100 µM
A498 renal
  GI50: 81.8 µM
  TGI: > 100 µM
RXF 393 renal
  GI50: 50.3 µM
  TGI: > 100 µM
UACC-62 melanoma
  GI50: 22.1 µM
  TGI: 96.2 µM
DU-145 prostate
  GI50: 19 µM
  TGI: > 100 µM
SF-295 CNS
  GI50: 15.1 µM
  TGI: 67.2 µM
